Reference: patent US12637414B2, “Arylamides and methods of use thereof” (Genzyme Corporation, priority 2019, dated 2026)

Target: T1, human Cystic Fibrosis Transmembrane Conductance Regulator (CFTR) harboring the ΔF508 mutation (Homo sapiens, UniProt P13569, DEL508-508)
T1 construct: expressed in transfected cells; host or cells: H441 carcinoma line (G418 selection)
Assay: H441 cell Emax and EC50: HRP-tagged ΔF508-CFTR cell surface luminescence assay
Assay type: cell-based
Settings: H441 cells expressing ΔF508-CFTR-HRP, 27° C., two nights; for EC50: 15-point dose-response, top 24.5 μM; for Emax: NCI-H441, % of maximum VX809 signal
Method in brief: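 Cells express ΔF508-CFTR carrying an HRP tag in extracellular loop 4 (CMV promoter); ~10K cells/well treated with a 15-point series from 24.5 µM and incubated two nights at 27° C. Surface CFTR read by luminescence from HRP substrate. EC50 and Emax given relative to maximal VX809 (260 µM stock) signal.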

T1 sequence (P13569 with tags, fused parts or gaps DEL508-508): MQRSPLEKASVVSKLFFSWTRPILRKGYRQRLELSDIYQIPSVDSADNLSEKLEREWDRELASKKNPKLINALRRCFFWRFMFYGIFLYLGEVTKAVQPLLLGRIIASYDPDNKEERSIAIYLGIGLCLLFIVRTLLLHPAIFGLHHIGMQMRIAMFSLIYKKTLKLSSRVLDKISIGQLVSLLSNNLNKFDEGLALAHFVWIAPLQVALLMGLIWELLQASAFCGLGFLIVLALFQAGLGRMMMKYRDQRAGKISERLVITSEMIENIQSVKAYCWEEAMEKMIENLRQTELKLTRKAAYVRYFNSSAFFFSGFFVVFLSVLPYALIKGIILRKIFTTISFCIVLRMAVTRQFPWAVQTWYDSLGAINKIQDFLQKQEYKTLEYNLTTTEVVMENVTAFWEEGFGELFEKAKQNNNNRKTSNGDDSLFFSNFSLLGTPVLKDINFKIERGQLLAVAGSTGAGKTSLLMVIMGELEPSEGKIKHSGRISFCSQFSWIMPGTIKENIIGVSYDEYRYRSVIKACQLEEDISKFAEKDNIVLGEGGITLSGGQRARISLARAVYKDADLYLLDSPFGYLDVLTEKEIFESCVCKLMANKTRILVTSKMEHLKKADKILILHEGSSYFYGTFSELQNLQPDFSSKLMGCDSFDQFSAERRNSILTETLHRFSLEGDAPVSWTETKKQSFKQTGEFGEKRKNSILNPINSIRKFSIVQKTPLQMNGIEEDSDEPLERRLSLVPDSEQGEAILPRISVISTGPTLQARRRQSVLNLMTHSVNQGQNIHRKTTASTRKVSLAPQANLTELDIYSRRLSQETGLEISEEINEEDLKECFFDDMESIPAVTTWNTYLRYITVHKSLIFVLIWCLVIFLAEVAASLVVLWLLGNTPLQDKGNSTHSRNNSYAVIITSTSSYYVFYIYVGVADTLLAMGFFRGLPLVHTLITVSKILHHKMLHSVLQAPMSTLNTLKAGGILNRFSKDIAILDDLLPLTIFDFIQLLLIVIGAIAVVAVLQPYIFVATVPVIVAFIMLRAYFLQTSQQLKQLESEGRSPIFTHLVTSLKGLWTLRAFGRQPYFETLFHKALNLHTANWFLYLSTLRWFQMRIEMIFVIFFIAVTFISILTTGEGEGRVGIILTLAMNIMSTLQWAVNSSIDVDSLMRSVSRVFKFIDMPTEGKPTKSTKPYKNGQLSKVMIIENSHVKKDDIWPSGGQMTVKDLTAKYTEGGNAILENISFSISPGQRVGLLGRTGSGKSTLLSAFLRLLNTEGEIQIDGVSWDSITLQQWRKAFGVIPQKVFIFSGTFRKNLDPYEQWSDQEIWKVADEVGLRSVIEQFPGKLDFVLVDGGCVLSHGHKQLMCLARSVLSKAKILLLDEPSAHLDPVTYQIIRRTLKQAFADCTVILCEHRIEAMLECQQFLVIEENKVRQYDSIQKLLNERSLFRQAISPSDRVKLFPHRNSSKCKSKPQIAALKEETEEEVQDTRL

SMILES | EC50 [nM] | Emax [%]
O=C(N[C@H](C(=O)O)C12CC3CC(CC(C3)C1)C2)c1sc2ccccc2c1OCc1ccc(Cl)c(Cl)c1 [compound 24] | 726 | 159
O=C(N[C@H](C(=O)O)C12CC3CC(CC(OCC(F)(F)F)(C3)C1)C2)c1ccc2ccccc2c1OCc1ccc(C(F)(F)F)cc1 [compound 6] | 126 | 233
O=C(N[C@H](C(=O)O)C12CC3CC(CC(C3)C1)C2)c1ccc2cccnc2c1OCc1ccc(C(F)(F)F)cc1 [compound 41] | 468 | 173
C[C@H]1N(Cc2ccc(C(F)(F)F)cc2)c2c(ccc3ccccc23)C(=O)N1[C@H](C(=O)O)C12CC3CC(CC(C3)C1)C2 [compound 129, (2S)-2-(1-adamantyl)-2-[(2S)-2-methyl-4-oxo-1-[[4-(trifluoromethyl)phenyl]methyl]-2H-benzo[h]quinazolin-3-yl]acetic acid] | 90 | 34.9
COc1c(F)c(COc2c(C(=O)N[C@H](C(=O)O)C34CC5CC(CC(C5)C3)C4)ccc3ccccc23)c(F)c(F)c1C(F)(F)F [compound 86] | 526 | 24
O=C(N[C@H](C(=O)O)C12CC3CC(CC(C3)C1)C2)c1ccc2sccc2c1OCC1CCC(F)(F)CC1 [compound 106, (2S)-2-(1-adamantyl)-2-[[4-[(4,4-difluorocyclohexyl)methoxy]benzothiophene-5-carbonyl]amino]acetic acid] | 3620 | 156
CC12CC3(C)CC(C)(C1)CC([C@H](NC(=O)c1ccc4cccnc4c1OCc1ccc(C(F)(F)F)cc1)C(=O)O)(C2)C3 [compound 62] | 245 | 217

More lines, now with the values ahead:

EC50 [nM] | Emax [%] | SMILES
1630 | 56.5 | O=C(O)[C@@H](N1CN(Cc2ccc(SC(F)(F)F)cc2)c2c(ccc3ccccc23)C1=O)C12CC3CC(CC(O)(C3)C1)C2 [compound 121, (2S)-2-(3-hydroxy-1-adamantyl)-2-[4-oxo-1-[[4-(trifluoromethylsulfanyl)phenyl]methyl]-2H-benzo[h]quinazolin-3-yl]acetic acid]
2880 | 55.8 | O=C(N[C@H](C(=O)O)C12CC3CC(CC(C3)C1)C2)c1ccc2ccccc2c1OCc1nc(C(F)(F)F)cs1 [compound 100, (2S)-2-(1-adamantyl)-2-[[1-[[4-(trifluoromethyl)thiazol-2-yl]methoxy]naphthalene-2-carbonyl]amino]acetic acid]
947 | 16.4 | COc1ccc2c(OCc3ccc(SC(F)(F)F)cc3)c(C(=O)N[C@H](C(=O)O)C34CC5CC(CC(C5)C3)C4)ccc2c1 [compound 83]
360 | 190 | O=C(N[C@H](C(=O)O)C12CC3CC(CC(C3)C1)C2)c1ccc2sccc2c1OCc1ccc(C(F)(F)F)cc1 [compound 112, (2S)-2-(1-adamantyl)-2-[[4-[[4-(trifluoromethyl)phenyl]methoxy]benzothiophene-5-carbonyl]amino]acetic acid]
 | -1.3 | NC12CC3CC(C1)CC([C@H](NC(=O)c1ccc4ccccc4c1OCc1ccc(C(F)(F)F)cc1)C(=O)O)(C3)C2 [compound 92]
7220 | 74.1 | O=C(N[C@H](C(=O)O)C12CC3CC(CC(O)(C3)C1)C2)c1ccc2ccccc2c1OCC1CCC(F)(F)CC1 [compound 53]
382 | 173 | O=C(N[C@H](C(=O)O)C12CC3CC(CC(C3)C1)C2)c1ccc2sccc2c1OCc1ccc(Cl)c(Cl)c1 [compound 110, (2S)-2-(1-adamantyl)-2-[[4-[(3,4-dichlorophenyl)methoxy]benzothiophene-5-carbonyl]amino]acetic acid]
903 | 156 | O=C(N[C@H](C(=O)O)C12CC3CC(CC(O)(C3)C1)C2)c1ccc2ccccc2c1OCc1ccc(C(F)(F)F)cc1 [compound 17]
